# Experimental data from patent US20260184675A1, “CHIRAL ISOMERIC SULFITE COMPOUND AND APPLICATION THEREOF” (Chengdu Hanova BioSciences Co., Ltd, priority 2024, published 2026).
# Experiments:
# Type in all cases: in vivo
# [1] = system: pest eggs of Tetranychus cinnabarinus; assay: Effect on hatching of pest eggs of Tetranychus cinnabarinus, leaf disc method; conditions: for Hatching rate (%): 7 days after insecticide delivery
# Description: (§1) • (1) Preparation of leaf discs containing eggs: 20 female adult mites of Tetranychus cinnabarinus were transferred onto leaf discs of Vicia faba with a diameter of 2.0 cm (with wetted filter paper at the bottom), then covered it with a lidded culture dish and cultivated under moisturizing conditions, the adult mites were removed within 36 hours and microscopic examination and counting were performed on leaf discs containing eggs. • (2) Investigation of egg population base: Before pesticide soaking, a microscopic examination was conducted on the egg basic number of each leaf disc, with 2 replicates set for each treatment. • (3) Pesticide soaking treatment: The leaf butterflies loaded with mite eggs were soaked in clear water and sulfite compounds for 10 seconds, respectively, then taken out and cultivated under moisturizing conditions. Each treatment should be repeated for no less than 3 times. • (4) Cultivation and observation: The […] were cultivated under normal conditions. Five days after insecticide delivery, the hatching status of mite eggs was investigated. • Note: The temperature and humidity conditions of the constant temperature and humidity incubator after the treatment should be controlled so as to avoid excessive temperature differences, which may cause generation and dripping of condensate water in the culture dish, resulting in abnormal death of eggs due to soaking in water; it is also necessary to ensure sufficient strong ambient light, without directing irradiating the leaves. • (5) Survey of Results: The experimental materials of each treatment group were regularly hydrated and moisturized, and the hatching of eggs was observed. On the 7th day after insecticide delivery, the number of hatched eggs for each treatment was recorded, and the survey of results was recorded in the original notebook. According to the experimental requirements and characteristics of agents, the survey time can be shortened or extended. • 1) Surveying and recording the number of hatched eggs for each treatment. • 2) Photographing and recording whether there was any pesticide damage to the leaf discs of Vicia faba. • 3) Recording the developmental status of experimental mite eggs, behavior status of nymph mites, including abnormal phenomena such as delayed or stopped development of mite eggs, difficulty in breaking hull for nymph mites, or painful struggles after hatching, etc. • (6) Calculation method: Based on the survey data, the prevention and control effect of each treatment was calculated according to the following formula, and the calculation results were kept to two decimal places. [formula] [formula] [table]
# eggs of Aleyrodidae = assay: Effect on hatching of eggs of Aleyrodidae, leaf disc method; conditions: 10 ppm; for Hatching rate (%), Replicate 1 / Hatching rate (%), Replicate 2 / Hatching rate (%), Replicate 3 / Number of hatched larvae 5 days after insecticide delivery, Replicate 1 / Number of hatched larvae 5 days after insecticide delivery, Replicate 2 / Number of hatched larvae 5 days after insecticide delivery, Replicate 3: Aleyrodidae eggs; for Hatching rate (%), Replicate 1 / Hatching rate (%), Replicate 2 / Hatching rate (%), Replicate 3: 5 days after delivery; for Number of hatched larvae 5 days after insecticide delivery, Replicate 1 / Number of hatched larvae 5 days after insecticide delivery, Replicate 2 / Number of hatched larvae 5 days after insecticide delivery, Replicate 3: leaf disc
# Description: as §1, with “extended.” for “extended. • 1) Surveying and recording the number of hatched eggs for each treatment. • 2) Photographing and recording whether there was any pesticide damage to the leaf discs of Vicia faba. • 3) Recording the developmental status of experimental mite eggs, behavior status of nymph mites, including abnormal phenomena such as delayed or stopped development of mite eggs, difficulty in breaking hull for nymph mites, or painful struggles after hatching, etc. • (6) Calculation method: Based on the survey data, the prevention and control effect of each treatment was calculated according to the following formula, and the calculation results were kept to two decimal places. [formula] [formula] [table]”
# • 1) Surveying and recording the number of hatched eggs for each treatment. • 2) Photographing and recording whether there was any pesticide damage to the leaf discs of Vicia faba. • 3) Recording the developmental status of experimental mite eggs, behavior status of nymph mites, including abnormal phenomena such as delayed or stopped development of mite eggs, difficulty in breaking hull for nymph mites, or painful struggles after hatching, etc. • (6) Calculation method: Based on the survey data, the prevention and control effect of each treatment was calculated according to the following formula, and the calculation results were kept to two decimal places.
# This test adopted the method in Test Example 1 of technical section, mainly used leaf disc method to explore the inhibitory effect on hatching of eggs of Aleyrodidae by compounds 1-(S,S), 1-(S,R), 1-(R,R), 1-(R,S), 1′-(S,S), 1′-(S,R), 1′-(R,R), 1′-(R,S), compound 1, compound 1′, S-10, R-10, S-10′, R-10′, compound 10, compound 10′, compound 19-(S,S), 19-(S,R), 19-(R,R), 19-(R,S), 19′-(S,S), 19′-(S,R), 19′-(R,R), 19′-(R,S), compound 19, and compound 19′. The concentration of all compounds was 10 ppm.
# [2] = system: eggs of Harmonia axyridis; assay: Effect on hatching of eggs of Harmonia axyridis, egg card immersion; conditions: 100 ppm; for Number of hatched larvae 4 days after insecticide delivery, Replicate 1 / Number of hatched larvae 4 days after insecticide delivery, Replicate 2 / Number of hatched larvae 4 days after insecticide delivery, Replicate 3: Harmonia axyridis egg cards, immersed 30 seconds; for Hatching rate (%), Replicate 1 / Hatching rate (%), Replicate 2 / Hatching rate (%), Replicate 3: Harmonia axyridis eggs, 4 days after delivery
# From the text: The eggs of Harmonia axyridis cards (with approximately 20 eggs per card) were purchased from Henan Jiyuan Baiyun Industry Co., Ltd. in Henan Province. The number of eggs on the egg cards was counted as the basic number before insecticide delivery, and 5 cards were used as one treatment, with 3 replicates per treatment. After immersing the egg cards in a 100 ppm insecticide solution for 30 seconds, they were taken out and air dried, then cultivated under moisturizing conditions, and the […] were cultivated at 27° C. 4 days after insecticide delivery, the hatching status of eggs of Harmonia axyridis was investigated, and the prevention and control effect was calculated according to the following formula. [formula] [formula]
structure (smiles),measurement,setting,value
"C[C@H](COS(=O)OCCF)Oc1ccc(Cl)cc1Cl (stereo partly drawn) [1-(R,R)]",Hatching rate (%),"[1]; 0.25 mg/L, Replicate 1",45.45%
same,Hatching rate (%),"[1]; 0.25 mg/L, Replicate 2",45.10%
same,Number of hatched larvae 7 days after insecticide delivery,"[1]; 0.25 mg/L, Replicate 1",36
same,Number of hatched larvae 7 days after insecticide delivery,"[1]; 0.25 mg/L, Replicate 2",28
same,Hatching rate (%),"[1]; 0.5 mg/L, Replicate 1",4.26%
same,Hatching rate (%),"[1]; 0.5 mg/L, Replicate 2",5.56%
same,Number of hatched larvae 7 days after insecticide delivery,"[1]; 0.5 mg/L, Replicate 1",45
same,Number of hatched larvae 7 days after insecticide delivery,"[1]; 0.5 mg/L, Replicate 2",68
same,Hatching rate (%),"[1]; 1 mg/L, Replicate 1",0.00%
same,Hatching rate (%),"[1]; 1 mg/L, Replicate 2",0.00%
same,Number of hatched larvae 7 days after insecticide delivery,"[1]; 1 mg/L, Replicate 1",56
same,Number of hatched larvae 7 days after insecticide delivery,"[1]; 1 mg/L, Replicate 2",62
same,inhibitory effect on the hatching of pest eggs of Tetranychus cinnabarinus (in words),[1]; 1 ppm,excellent inhibitory effects
same,inhibitory activity on the hatching of eggs of Aleyrodidae (in words),eggs of Aleyrodidae,strong inhibitory activities
same,"Hatching rate (%), Replicate 1","eggs of Aleyrodidae; listed as 1-(R, R)",0.00%
same,"Hatching rate (%), Replicate 2","eggs of Aleyrodidae; listed as 1-(R, R)",0.00%
same,"Hatching rate (%), Replicate 3","eggs of Aleyrodidae; listed as 1-(R, R)",0.00%
same,"Number of hatched larvae 5 days after insecticide delivery, Replicate 1","eggs of Aleyrodidae; listed as 1-(R, R)",0
same,"Number of hatched larvae 5 days after insecticide delivery, Replicate 2","eggs of Aleyrodidae; listed as 1-(R, R)",0
same,"Number of hatched larvae 5 days after insecticide delivery, Replicate 3","eggs of Aleyrodidae; listed as 1-(R, R)",0
same,inhibitory activity on the hatching of eggs of Harmonia axyridis (in words),[2],strong inhibitory activities
same,"Number of hatched larvae 4 days after insecticide delivery, Replicate 1","[2]; listed as 1-(R, R)",0
same,"Number of hatched larvae 4 days after insecticide delivery, Replicate 2","[2]; listed as 1-(R, R)",0
same,"Number of hatched larvae 4 days after insecticide delivery, Replicate 3","[2]; listed as 1-(R, R)",0
same,"Hatching rate (%), Replicate 1","[2]; listed as 1-(R, R)",0.00%
same,"Hatching rate (%), Replicate 2","[2]; listed as 1-(R, R)",0.00%
same,"Hatching rate (%), Replicate 3","[2]; listed as 1-(R, R)",0.00%
"C[C@H](COS(=O)OCCF)Oc1ccc(Cl)cc1Cl (stereo partly drawn) [1-(R,S)]",Hatching rate (%),"[1]; 0.25 mg/L, Replicate 1",74.51%
same,Hatching rate (%),"[1]; 0.25 mg/L, Replicate 2",76.47%
same,Number of hatched larvae 7 days after insecticide delivery,"[1]; 0.25 mg/L, Replicate 1",13
same,Number of hatched larvae 7 days after insecticide delivery,"[1]; 0.25 mg/L, Replicate 2",14
same,Hatching rate (%),"[1]; 0.5 mg/L, Replicate 1",43.66%
same,Hatching rate (%),"[1]; 0.5 mg/L, Replicate 2",48.98%
same,Number of hatched larvae 7 days after insecticide delivery,"[1]; 0.5 mg/L, Replicate 1",40
same,Number of hatched larvae 7 days after insecticide delivery,"[1]; 0.5 mg/L, Replicate 2",25
same,Hatching rate (%),"[1]; 1 mg/L, Replicate 1",4.69%
same,Hatching rate (%),"[1]; 1 mg/L, Replicate 2",6.67%
same,Number of hatched larvae 7 days after insecticide delivery,"[1]; 1 mg/L, Replicate 1",61
same,Number of hatched larvae 7 days after insecticide delivery,"[1]; 1 mg/L, Replicate 2",42
same,"Hatching rate (%), Replicate 1","eggs of Aleyrodidae; listed as 1-(R, S)",7.95%
same,"Hatching rate (%), Replicate 2","eggs of Aleyrodidae; listed as 1-(R, S)",7.41%
same,"Hatching rate (%), Replicate 3","eggs of Aleyrodidae; listed as 1-(R, S)",7.44%
same,"Number of hatched larvae 5 days after insecticide delivery, Replicate 1","eggs of Aleyrodidae; listed as 1-(R, S)",7
same,"Number of hatched larvae 5 days after insecticide delivery, Replicate 2","eggs of Aleyrodidae; listed as 1-(R, S)",10
same,"Number of hatched larvae 5 days after insecticide delivery, Replicate 3","eggs of Aleyrodidae; listed as 1-(R, S)",9
same,"Number of hatched larvae 4 days after insecticide delivery, Replicate 1","[2]; listed as 1-(R, S)",11
same,"Number of hatched larvae 4 days after insecticide delivery, Replicate 2","[2]; listed as 1-(R, S)",9
same,"Number of hatched larvae 4 days after insecticide delivery, Replicate 3","[2]; listed as 1-(R, S)",10
same,"Hatching rate (%), Replicate 1","[2]; listed as 1-(R, S)",9.91%
same,"Hatching rate (%), Replicate 2","[2]; listed as 1-(R, S)",10.23%
same,"Hatching rate (%), Replicate 3","[2]; listed as 1-(R, S)",10.53%
